Results: patent US10118935B2, “Melampomagnolide B dimers” (priority 2014, dated 2018)

Experiments:
[1] = test system: SF-268; assay: NCI 60 cell line five dose, CNS Cancer
[2] = test system: OVCAR-4; assay: NCI 60 cell line five dose, Ovarian Cancer
[3] = test system: HCT-116; assay: NCI 60 cell line five dose, Colon Cancer
[4] = test system: HOP-62; assay: NCI 60 cell line five dose, Non-Small Cell Lung Cancer; format: cell-based, human
[5] = test system: SF-539; assay: NCI 60 cell line five dose, CNS Cancer
[6] = test system: MDA-MB-231/ATCC; assay: NCI 60 cell line five dose, Breast Cancer
[7] = test system: NCI-H226; assay: NCI 60 cell line five dose, Non-Small Cell Lung Cancer
[8] = test system: EKVX; assay: as above; format: cell-based, human
[9] = test system: DU-145; assay: NCI 60 cell line five dose, Prostate Cancer
[10] = test system: SN12C; assay: NCI 60 cell line five dose, Renal Cancer
[11] = test system: NCI/ADR-RES; assay: NCI 60 cell line five dose, Ovarian Cancer; settings: NCI/ADR-
[12] = test system: SK-MEL-5; assay: NCI 60 cell line five dose, Melanoma
[13] = read-out: LC50 (the source's name)

`C=C1C(=O)O[C@H]2[C@H]1CC/C(COC(=O)NCCCCNC(=O)OC/C1=C/CC[C@@]3(C)O[C@H]3[C@H]3OC(=O)C(=C)[C@@H]3CC1)=C\CC[C@@]1(C)O[C@@H]21` [JVM 3-54, bis(((1aR,7aS,10aS,10bS,E)-1a-Methyl-8-methylene-9-oxo-1a,2,3,6,7,7a,8,9,10a,10b-decahydrooxireno[2′,3′:9,10]cyclodeca[1,2-b]furan-5-yl)methyl)butane-1,4-diyldicarbamate] was tested, and the GI50 [1] was 3.18 µM, the TGI [1] was 12.6 µM and the “Percent Growth” value ([1]; Log10 Concentration −4.0) was −74%. The “Percent Growth” value ([1]; Log10 Concentration −5.0) was 8%, the “Percent Growth” value ([1]; Log10 Concentration −6.0) was 92% and the “Percent Growth” value ([1]; Log10 Concentration −7.0) was 97%. For the same compound, the “Percent Growth” value ([1]; Log10 Concentration −8.0) was 97%, the CC50 ([1]; read-out: LC50) was 51 µM and the GI50 [2] was 1.77 µM. The “Percent Growth” value ([2]; Log10 Concentration −4.0) was −98%, the “Percent Growth” value ([2]; Log10 Concentration −5.0) was −5% and the “Percent Growth” value ([2]; Log10 Concentration −6.0) was 68%. For the same compound, the “Percent Growth” value ([2]; Log10 Concentration −7.0) was 82%, the “Percent Growth” value ([2]; Log10 Concentration −8.0) was 93% and the CC50 ([2]; read-out: LC50) was 30.5 µM. The GI50 [3] was 1.12 µM, the TGI [3] was 2.63 µM and the “Percent Growth” value ([3]; Log10 Concentration −4.0) was −88%. The “Percent Growth” value ([3]; Log10 Concentration −5.0) was −78%, the “Percent Growth” value ([3]; Log10 Concentration −6.0) was 56% and the “Percent Growth” value ([3]; Log10 Concentration −7.0) was 85%. The “Percent Growth” value ([3]; Log10 Concentration −8.0) was 99%, the CC50 ([3]; read-out: LC50) was 6.19 µM and the GI50 [4] was 3.84 µM. The TGI [4] was 14 µM, the “Percent Growth” value ([4]; Log10 Concentration −4.0) was −82% and the “Percent Growth” value ([4]; Log10 Concentration −5.0) was 14%. The “Percent Growth” value ([4]; Log10 Concentration −6.0) was 101%, the “Percent Growth” value ([4]; Log10 Concentration −7.0) was 95% and the “Percent Growth” value ([4]; Log10 Concentration −8.0) was 94%. For the same compound, the CC50 [4, 13] was 46.1 µM, the GI50 [5] was 1.55 µM and the TGI [5] was 3.71 µM. The “Percent Growth” value ([5]; Log10 Concentration −4.0) was −100%, the “Percent Growth” value ([5]; Log10 Concentration −5.0) was −57% and the “Percent Growth” value ([5]; Log10 Concentration −6.0) was 75%. For the same compound, the “Percent Growth” value ([5]; Log10 Concentration −7.0) was 93%, the “Percent Growth” value ([5]; Log10 Concentration −8.0) was 103% and the CC50 ([5]; read-out: LC50) was 8.84 µM. The GI50 [6] was 1.53 µM, the TGI [6] was 3.24 µM and the “Percent Growth” value ([6]; Log10 Concentration −4.0) was −85%. The “Percent Growth” value ([6]; Log10 Concentration −5.0) was −76%, the “Percent Growth” value ([6]; Log10 Concentration −6.0) was 79% and the “Percent Growth” value ([6]; Log10 Concentration −7.0) was 104%. The “Percent Growth” value ([6]; Log10 Concentration −8.0) was 103%, the GI50 [7] was 11.4 µM and the TGI [7] was 30.5 µM. The “Percent Growth” value ([7]; Log10 Concentration −4.0) was −60%, the “Percent Growth” value ([7]; Log10 Concentration −5.0) was 57% and the “Percent Growth” value ([7]; Log10 Concentration −6.0) was 100%. For the same compound, the “Percent Growth” value ([7]; Log10 Concentration −7.0) was 97%, the “Percent Growth” value ([7]; Log10 Concentration −8.0) was 98% and the CC50 ([7]; read-out: LC50) was 81.6 µM. For the same compound, the GI50 [8] was 3.69 µM, the TGI [8] was 13.5 µM and the “Percent Growth” value ([8]; Log10 Concentration −4.0) was −98%. The “Percent Growth” value ([8]; Log10 Concentration −5.0) was 15%, the “Percent Growth” value ([8]; Log10 Concentration −6.0) was 96% and the “Percent Growth” value ([8]; Log10 Concentration −7.0) was 92%. The “Percent Growth” value ([8]; Log10 Concentration −8.0) was 97%, the CC50 [8, 13] was 37.3 µM and the GI50 [9] was 3.21 µM. The TGI [9] was 10.5 µM, the “Percent Growth” value ([9]; Log10 Concentration −4.0) was −96% and the “Percent Growth” value ([9]; Log10 Concentration −5.0) was 2%. The “Percent Growth” value ([9]; Log10 Concentration −6.0) was 99%, the “Percent Growth” value ([9]; Log10 Concentration −7.0) was 98% and the “Percent Growth” value ([9]; Log10 Concentration −8.0) was 99%. The CC50 ([9]; read-out: LC50) was 33.8 µM, the GI50 [10] was 2.75 µM and the TGI [10] was 10.1 µM. The “Percent Growth” value ([10]; Log10 Concentration −4.0) was −84%, the “Percent Growth” value ([10]; Log10 Concentration −6.0) was 89% and the “Percent Growth” value ([10]; Log10 Concentration −7.0) was 101%. For the same compound, the “Percent Growth” value ([10]; Log10 Concentration −8.0) was 100%, the CC50 ([10]; read-out: LC50) was 39.5 µM and the GI50 [11] was 37.7 µM. The “Percent Growth” value ([11]; Log10 Concentration −4.0) was 23%, the “Percent Growth” value ([11]; Log10 Concentration −5.0) was 86% and the “Percent Growth” value ([11]; Log10 Concentration −6.0) was 99%. For the same compound, the “Percent Growth” value ([11]; Log10 Concentration −7.0) was 90%, the “Percent Growth” value ([11]; Log10 Concentration −8.0) was 94% and the CC50 ([11]; read-out: LC50) was greater than 100 µM. The GI50 [12] was 3.33 µM, the TGI [12] was 11.8 µM and the “Percent Growth” value ([12]; Log10 Concentration −4.0) was −85%. For the same compound, the “Percent Growth” value ([12]; Log10 Concentration −5.0) was 7%, the “Percent Growth” value ([12]; Log10 Concentration −6.0) was 98% and the “Percent Growth” value ([12]; Log10 Concentration −7.0) was 100%. The “Percent Growth” value ([12]; Log10 Concentration −8.0) was 97% and the CC50 ([12]; read-out: LC50, SK-MEL-6) was 41.4 µM.
